According to patent US20110288036A1, “Methods for Treating or Preventing Vascular Graft Failure” (priority 2010, published 2011):
Entries after “also recorded” stand apart in the source; their conditions may differ.

Key:
[1] = system: human coronary artery endothelial cells (HCAEC); experiment: IL-6 and IL-8 ELISA in TNF-α-stimulated HCAEC; assay type: cell-based; settings: 0.5 mM, 24 hours after 6 hour TNF-α
Procedure: Primary human coronary artery endothelial cells (HCAEC) were cultured and seeded onto a 96-well plate, using methods described in the MTS proliferation assay above. Cells were again stimulated with 20 ng/ml of TNF-α for 6 hours and then treated with MMI-0100 (SEQ ID NO: 1) for approximately 24 hours. Supernatants were then collected and analyzed for drug effect on inflammatory cytokines.
IL-6 (Cat #: 900-K16; Lot #: 0909016) and IL-8 (Cat #: 900-K18; Lot #: 0209018) ELISA kits (Peprotech; Rocky Hill, N.J.) were used to measure levels of these cytokines from HCAEC supernatants following treatment with MMI-0100 ([…]; SEQ ID NO: 1). The Human IL-6 ELISA development kit contains the key components required for the quantitative measurement of natural and/or recombinant hIL-6 in a sandwich ELISA format within the range of 32-2000 pg/ml. Human IL-8 ELISA development kit contains the key components required for the quantitative measurement of natural and/or recombinant hIL-8 in a sandwich ELISA format within the range of 16-1000 pg/ml. […]
Briefly, 10 μl of supernatant was diluted with 90 μl of diluents; 3 replicates of each sample were used. Data were collected at 405 nm with correction at 650 nm on a plate reader. Each plate was monitored for 1 hour with readings taken every 5 minutes. Concentrations of IL-6 and IL-8 in test samples were determined by extrapolating from a standard curve. […]

[2] = system: human endothelial cell (EC); experiment: Phase contrast morphology, endothelial cells; assay type: cell-based; settings: 24 hours treatment, vs control cells
Procedure: In order to determine the effect of pharmacological doses of MMI-0100 ([…]; SEQ ID NO: 1) on human endothelial cell (EC) and smooth muscle cell (SMC) proliferation, human EC and SMC cultures were treated with three concentrations (0.25 mM, 0.5 mM, and 1 mM) of MMI-0100 ([…] (SEQ ID NO: 1)) following pre-treatment with TNF-α.

[3] = target: T1, MKK4 (Mus musculus, UniProt P47809); experiment: MKK4 radiometric kinase assay; assay type: biochemical; settings: peptide 100 μM
T1 construct: purchased Millipore (KinaseProfiler service)
T1 sequence (P47809 whole entry): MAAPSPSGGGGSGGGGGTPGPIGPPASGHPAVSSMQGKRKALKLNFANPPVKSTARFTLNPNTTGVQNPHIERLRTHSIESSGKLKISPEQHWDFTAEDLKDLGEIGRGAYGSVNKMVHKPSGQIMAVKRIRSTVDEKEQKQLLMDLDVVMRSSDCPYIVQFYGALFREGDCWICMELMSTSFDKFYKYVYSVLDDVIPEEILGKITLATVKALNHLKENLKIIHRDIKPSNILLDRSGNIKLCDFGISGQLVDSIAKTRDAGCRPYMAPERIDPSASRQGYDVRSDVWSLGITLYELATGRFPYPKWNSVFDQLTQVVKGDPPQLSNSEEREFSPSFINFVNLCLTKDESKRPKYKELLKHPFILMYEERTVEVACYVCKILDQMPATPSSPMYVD
Excerpt: A commercial radiometric assay service was used to test the specificity and potency of MMI-0100 ([…]; SEQ ID NO: 1) by measuring its half maximal inhibitory concentrations (IC50). This quantitative assay measures how much MK2 inhibitor (MMI-0100; […] (SEQ ID NO: 1)) is needed to inhibit 50% of a given biological process or component of a process (i.e., an enzyme, cell, or cell receptor). Specifically, in these assays, a positively charged substrate is phosphorylated with a radiolabeled phosphate group from an ATP if the kinase is not inhibited by an inhibitor peptide. The positively charged substrate then is attracted to a negatively charged filter membrane, quantified with a scintillation counter, and compared to a 100% activity control. ATP concentrations within 15 μM of the apparent Km for ATP were chosen since an ATP concentration near the Km may allow for the kinases to have the same relative amount of phosphorylation activity. The individual conditions for each radiometric assay are as follows.
The reaction was initiated by the addition of the MgATP. After incubation for 40 minutes at room temperature, 5 μl of the incubation mix was used to initiate the JNK radiometric assay described above.
IC50 values for inhibitor peptides were determined using Millipore's IC50 Profiler Express service. The IC50 value was estimated from a 10-point curve of one-half log dilutions. […]

YARAAARQARAKALARQLGVAA [MMI-0100]
TNF-α-induced IL-6 expression [1]: reduced the level of TNF-α-induced IL-6 expression to that of the untreated control
TNF-α-induced IL-8 expression [1]: did not affect the level of TNF-α-induced IL-8 expression; also recorded: no effect
morphological changes of EC [2]: no obvious morphological changes
Percent Activity, MKK4 [3]: 90%
